According to US20110028444A1, “PHARMACEUTICALLY ACCEPTABLE SALTS OF ANTI-INFECTION QUINOLONE COMPOUNDS” (priority 2008, published 2011):
In brackets after ≈: the same amount, converted by molar mass. Where two headings read alike, the source gives them in different places.

Columns and labels:
Streptococcus pneumoniae = assay: In-vitro antibacterial test, agar dilution MIC; type: cell-based; details: for MIC: Streptococcus pneumoniae, read-out: In-vitro MIC
Procedure: (§1) Test method: the agar dilution method was used for the minimum inhibitory concentration (MIC) determination. The antibacterial chemicals were mixed with given amounts of agar in various concentrations and the mixtures were made into solid plates. Each plate had the antibacterial concentration two times higher than the next plate. Bacteria species were then added to the surface of the plates, cultured, and observed for their growth.
(§2) Other bacteria included those isolated from sputum, throat swab or urine of patients with acute bacterial respiratory tract infection or urinary tract infection and identified by the hospitals.
(§3) (S)-6-fluoro-1-methyl-4-oxo-7-(1-piperazinyl)-1H,4H-[1,3]thiazeto[3,2-a]quino line-3-carboxylic acid lactate and other test samples, equivalent to 96 mg of ulifloxacin, were dissolved in sterilized distilled water to make up 50 mL of each solution.

Escherichia coli = assay: In-vitro antibacterial test, agar dilution MIC; type: cell-based; details: for MIC: Escherichia coli, read-out: In-vitro MIC
Source text: (§4) The test bacterial strains were the standard quality control test strains of Klebsiella pneumoniae strains (Strains No. CMCC 46114-8), Pseudomonas aeruginosa (Strains No. ATCC 27853), Escherichia coli (Strains No. ATCC25922), and Staphylococcus aureus cocci (Strains No. ATCC25925). Other bacteria included those isolated from sputum, throat swab or urine of patients with acute bacterial respiratory tract infection or urinary tract infection and identified by the hospitals.
(§5) HCl levofloxacin injection and NaCl ciprofloxacin lactate injection were diluted with sterilized distilled water to a concentration of 1920 μg/mL.

Staphylococcus aureus = assay: In-vitro antibacterial test, agar dilution MIC; type: cell-based; details: for MIC: Staphylococcus aureus, read-out: In-vitro MIC
Source text: as §4, §5

[1] = test system: Klebsiella pneumoniae, Pseudomonas aeruginosa, Staphylococcus aureus, Escherichia coli, Enterococcus faecalis, Streptococcus pneumoniae, Enterobacter cloacae …; assay: In-vitro antibacterial tests, summary over the tested bacteria; type: cell-based; details: for antibacterial activity (in words): against the eight tested bacteria; for antibacterial activities compared with compounds 7 and 8: against the above four bacteria, concentrations calculated as equivalents to NM394
Procedure: as §1, §2, §3

Pseudomonas aeruginosa = assay: In-vitro antibacterial test, agar dilution MIC; type: cell-based; details: for MIC: Pseudomonas aeruginosa, read-out: In-vitro MIC
Source text: as §4, §5

[2] = Solubility test: maximum solubility in water; type: physicochemical; details: thermodynamic from solid
Procedure: Three lots of mesylates and three lots of lactates, respectively, were subjected to preliminary tests for maximum solubility in water. At ambient temperature (25° C.), 0.2 g of sample was dissolved in 1 mL of water. To the solution was added 0.1 g of the sample each time until the sample could no longer be dissolved. The amount of sample dissolved was the maximum solubility.

Vibrio cholerae = assay: In-vitro antibacterial test, agar dilution MIC; type: cell-based; details: for MIC: Vibrio cholerae, read-out: In-vitro MIC; for In-vitro MIC: agar dilution
Source text: as §4, §5

Enterococcus faecalis = assay: In-vitro antibacterial test, agar dilution MIC; type: cell-based; details: read-out: In-vitro MIC
Source text: as §4, §5

Klebsiella pneumoniae = assay: In-vitro antibacterial test, agar dilution MIC; type: cell-based; details: for MIC: Klebsiella pneumoniae
Source text: as §4, §5

Enterobacter cloacae = assay: In-vitro antibacterial test, agar dilution MIC; type: cell-based; details: read-out: In-vitro MIC
Source text: as §4, §5

[3] = test system: New Zealand rabbit ear vein and surrounding tissues; assay: Vascular irritation tests; type: in vivo, New Zealand rabbits; details: vein injection once a day for 3 days, high and low doses
Source text: Sixteen New Zealand rabbits were divided into 4 groups: a control group and three treatment groups for compounds 4, 5, and 6, respectively; each group had 4 rabbits. The rabbits of the treatment groups were vein-injected on their left ears with high doses of the test samples and on their right ears with low doses of the test samples. The rabbits of the control group were rein-injected on their both left and right ears with sodium chloride solution. The injections continued for 3 days, once a day. Two rabbits from each group were anatomized after 24 hours of each injection.

[4] = maximum solubility in water, ambient temperature (25° C.), average of two tests, preliminary, read-out: Water Solubility
[5] = high dose group (60 mg/kg·bw), after 28 days, tissue microscopy

Procedure for SD rats: The dose without toxic reaction was thereby determined and the long term toxicity to SD rats was tested. One hundred forty SD rats were randomly divided into 7 groups depending on their body weight and sex; each group had 20 rats with 10 males and 10 females. […] The rats were administrated by intravenous injection, once a day for consecutive 4 weeks. The recovery was monitored for 2 weeks after treatment.
Drug preparation: the drugs were dissolved with a saline solution to the desired concentration before administration. Administration: intravenous injection. Delivery period: 28 days continuously. Observation and inspection: Observation and inspection projects, targets and time: including the general state of observation (7), hematologic (16), biochemical blood test (18), urine (10) and pathological examination.
General observation: the appearance of signs, behavior, glands, respiratory and stool, daily observation and timely recording, discovering dead or dying animals, timely anatomical examination, food intake, and body weight once weekly.
Blood tests: abdominal aortic blood for hematology testing, in the 16 testing indicators, leukocyte classification using whole blood smear, Wright stain staining; prothrombin time (PT) with a 0.109 mmol/L of citrate Citrus medica sodium (with blood volume ratio of 1:9) anticoagulant, 3000 r/min centrifugal 10 min, taking with BE Thromotimer plasma coagulation analyzer (Germany) determination; other indicators to EDTA anticoagulant, using SWELAB AC920EO automated hematology analyzer (Sweden).
Biochemical blood tests: blood sampling method same as above, blood serum obtained by 3000 r/min centrifugal 10 min. In the 21 indicators, the Na+, K+, Cl^− were determined using EasyLyte Plus Na/K/Cl analyzer (USA), the other indexes of blood were determined using a Hitachi 7020 automatic biochemical analyzer (Japan) determination.
Urine tests: 16 h urine collection, using [sequence] 100 urine analyzer.
Pathology: after anesthesia, the animal was killed by blood letting of the abdominal aorta. System anatomy and visual observation of changes in various organs were performed; and organ weights were determined. Tissue was fixed in 10% neutral formalin; plates were made by conventional paraffin producers, HE staining, and light microscopy.
Statistical analysis: In the different groups, the body weight, hematology, blood chemistry, urine measurements, organ weights, organ coefficient were calculated for the mean±standard deviation and t-test comparison between groups. Pathological abnormalities according to their incidence and severity were compared between groups.

(R)-6-fluoro-1-methyl-4-oxo-7-(1-piperazinyl)-1H,4H-[1,3]thiazeto[3,2-a]quinoline-3-carboxylic acid glutamate [Compound 12]
In-vitro MIC (Streptococcus pneumoniae; agar dilution): 0.5 µg/mL | In-vitro MIC (Escherichia coli; agar dilution): 0.5 µg/mL | In-vitro MIC (Staphylococcus aureus; agar dilution): 2 µg/mL

(S)-6-fluoro-1-methyl-4-oxo-7-(1-piperazinyl)-1H,4H-[1,3]thiazeto[3,2-a]quinoline-3-carboxylic acid glutamate [Compound 8]
antibacterial activity (in words) [1]: relatively strong antibacterial activity | In-vitro MIC (Streptococcus pneumoniae; agar dilution): 0.125 µg/mL | In-vitro MIC (Escherichia coli; agar dilution): 0.01 µg/mL | In-vitro MIC (Staphylococcus aureus; agar dilution): 0.25 µg/mL

(±)-6-fluoro-1-methyl-4-oxo-7-(1-piperazinyl)-1H,4H-[1,3]thiazeto[3,2-a]quinoline-3-carboxylic acid glutamate [Ulifloxaci glutamate (±), reference compound]
In-vitro MIC (Streptococcus pneumoniae; agar dilution): 0.2 µg/mL | In-vitro MIC (Escherichia coli; agar dilution): 0.125 µg/mL | In-vitro MIC (Staphylococcus aureus; agar dilution): 0.5 µg/mL

CS(=O)(=O)O.C[C@H]1Sc2c(C(=O)O)c(=O)c3cc(F)c(N4CCNCC4)cc3n21 [Compound 9, (R)-6-fluoro-1-methyl-4-oxo-7-(1-piperazinyl)-1H,4H-[1,3]thiazeto[3,2-a]quinoline-3-carboxylic acid mesylate]
MIC (Pseudomonas aeruginosa): 1 µg/mL | MIC (Streptococcus pneumoniae): 0.125 µg/mL | solubility ([2]; 25 °C, water): 501 mg/mL | MIC (Vibrio cholerae): 2 µg/mL | MIC (Staphylococcus aureus; agar dilution): 2 µg/mL | MIC (Enterococcus faecalis): 4 µg/mL | MIC (Klebsiella pneumoniae): 0.5 µg/mL | MIC (Enterobacter cloacae; agar dilution): 4 µg/mL

(R)-6-fluoro-1-methyl-4-oxo-7-(1-piperazinyl)-1H,4H-[1,3]thiazeto[3,2-a]quinoline-3-carboxylic acid gluconate [Compound 10]
In-vitro MIC (Pseudomonas aeruginosa; agar dilution): 1 µg/mL | In-vitro MIC (Escherichia coli; agar dilution): 0.25 µg/mL | In-vitro MIC (Vibrio cholerae): 2 µg/mL | In-vitro MIC (Staphylococcus aureus; agar dilution): 1 µg/mL | In-vitro MIC (Klebsiella pneumoniae): 0.5 µg/mL

(±)-6-fluoro-1-methyl-4-oxo-7-(1-piperazinyl)-1H,4H-[1,3]thiazeto[3,2-a]quinoline-3-carboxylic acid gluconate [Ulifloxaci gluconate (±), reference compound]
In-vitro MIC (Pseudomonas aeruginosa; agar dilution): 0.5 µg/mL | In-vitro MIC (Escherichia coli; agar dilution): 0.05 µg/mL | In-vitro MIC (Vibrio cholerae): 0.5 µg/mL | In-vitro MIC (Staphylococcus aureus; agar dilution): 0.5 µg/mL | In-vitro MIC (Klebsiella pneumoniae): 0.2 µg/mL

C[C@H]1COc2c(N3CCN(C)CC3)c(F)cc3c(=O)c(C(=O)O)cn1c23 [Levofloxacin, reference compound]
MIC (Pseudomonas aeruginosa; agar dilution): 2 µg/mL (≈ 5.53 µM) | MIC (Escherichia coli; agar dilution): 0.0313 µg/mL (≈ 0.0866 µM) | MIC (Staphylococcus aureus; agar dilution): 0.5 µg/mL (≈ 1.38 µM) | MIC (Klebsiella pneumoniae): 0.0125 µg/mL (≈ 0.0346 µM)

CC1Sc2c(C(=O)O)c(=O)c3cc(F)c(N4CCNCC4)cc3n21.CS(=O)(=O)O (racemic) [Ulifloxaci mesylate (±), (±)-6-fluoro-1-methyl-4-oxo-7-(1-piperazinyl)-1H,4H-[1,3]thiazeto[3,2-a]quinoline-3-carboxylic acid mesylate, reference compound]
MIC (Streptococcus pneumoniae): 0.088 µg/mL | solubility ([2]; 25 °C, water): 340 mg/mL | MIC (Escherichia coli): 0.063 µg/mL | MIC (Vibrio cholerae): 0.5 µg/mL | MIC (Staphylococcus aureus; agar dilution): 0.5 µg/mL | MIC (Enterococcus faecalis): 1.5 µg/mL | MIC (Klebsiella pneumoniae): 0.2 µg/mL | MIC (Enterobacter cloacae; agar dilution): 1 µg/mL

C[C@H]1Sc2c(C(=O)O)c(=O)c3cc(F)c(N4CCNCC4)cc3n21 [Compound 3, (R)-6-fluoro-1-methyl-4-oxo-7-(1-piperazinyl)-1H,4H-[1,3]thiazeto[3,2-a]quinoline-3-carboxylic acid]
MIC (Pseudomonas aeruginosa; agar dilution): 2 µg/mL (≈ 5.72 µM) | MIC (Streptococcus pneumoniae; agar dilution): 0.25 µg/mL (≈ 0.716 µM) | MIC (Escherichia coli; agar dilution): 0.225 µg/mL (≈ 0.644 µM) | MIC (Staphylococcus aureus; agar dilution): 2.83 µg/mL (≈ 8.09 µM) | MIC (Enterobacter cloacae; agar dilution): 4 µg/mL (≈ 11.4 µM)

CC(O)C(=O)O.C[C@@H]1Sc2c(C(=O)O)c(=O)c3cc(F)c(N4CCNCC4)cc3n21 [Compound 4, (S)-6-fluoro-1-methyl-4-oxo-7-(1-piperazinyl)-1H,4H-[1,3]thiazeto[3,2-a]quinoline-3-carboxylic acid lactate]
MIC (Pseudomonas aeruginosa): 0.25 µg/mL | antibacterial activities compared with compounds 7 and 8 [1]: slightly stronger | antibacterial activity (in words) [1]: relatively strong antibacterial activity | MIC (Streptococcus pneumoniae): 0.02 µg/mL | solubility [2, 4]: 70 mg/mL | MIC (Escherichia coli): 0.01 µg/mL | MIC (Staphylococcus aureus): 0.125 µg/mL | MIC (Enterococcus faecalis; agar dilution): 0.5 µg/mL | NOAEL (no observed adverse effect level) (SD rats; SD rats, 28 days continuous intravenous administration, calculated based on NM394): 30 mg/kg·bw | targeted organ of toxicity (SD rats; SD rats, intravenous): the kidney | rats with crystals in renal tubules (SD rats; [5]): 3 | rats with kidney protein casts (SD rats; [5]): one | rats with mild cortical tubular dilatation (SD rats; [5]): 3 | rats with mild interstitial inflammatory cell infiltration (SD rats; high dose group (60 mg/kg·bw), tissue microscopy): 1 | MIC (Enterobacter cloacae; agar dilution): 0.5 µg/mL | irritation to ear vein and surrounding tissues [3]: no irritation

(±)-6-fluoro-1-methyl-4-oxo-7-(1-piperazinyl)-1H,4H-[1,3]thiazeto[3,2-a]quino line-3-carboxylic acid aspartate [Ulifloxaci aspartate (±), reference compound]
In-vitro MIC (Pseudomonas aeruginosa; agar dilution): 0.5 µg/mL | In-vitro MIC (Escherichia coli; agar dilution): 0.1 µg/mL | In-vitro MIC (Staphylococcus aureus; agar dilution): 0.5 µg/mL

CC(O)C(=O)O.CC1Sc2c(C(=O)O)c(=O)c3cc(F)c(N4CCNCC4)cc3n21 (racemic) [Ulifloxaci lactate (±), (±)-6-fluoro-1-methyl-4-oxo-7-(1-piperazinyl)-1H,4H-[1,3]thiazeto[3,2-a]quinoline-3-carboxylic acid lactate, reference compound]
MIC (Streptococcus pneumoniae): 0.1 µg/mL | solubility [2, 4]: 106 mg/mL | MIC (Escherichia coli): 0.125 µg/mL | MIC (Staphylococcus aureus): 0.25 µg/mL | MIC (Enterococcus faecalis; agar dilution): 2 µg/mL | MIC (Enterobacter cloacae): 1.25 µg/mL

C[C@@H]1Sc2c(C(=O)O)c(=O)c3cc(F)c(N4CCNCC4)cc3n21 [Compound 2, (S)-6-fluoro-1-methyl-4-oxo-7-(1-piperazinyl)-1H,4H-[1,3]thiazeto[3,2-a]quinoline-3-carboxylic acid]
MIC (Pseudomonas aeruginosa; agar dilution): 0.177 µg/mL (≈ 0.507 µM) | antibacterial activity relative to R-ulifloxacin [1]: 3 to 10 times | antibacterial activity relative to racemic ulifloxacin [1]: two or more times | antibacterial activity (in words) [1]: relatively strong antibacterial activity | MIC (Streptococcus pneumoniae; agar dilution): 0.025 µg/mL (≈ 0.0716 µM) | MIC (Escherichia coli; agar dilution): 0.0125 µg/mL (≈ 0.0358 µM) | MIC (Staphylococcus aureus; agar dilution): 0.177 µg/mL (≈ 0.507 µM) | MIC (Enterobacter cloacae; agar dilution): 0.5 µg/mL (≈ 1.43 µM)

O=C(O)c1cn(C2CC2)c2cc(N3CCNCC3)c(F)cc2c1=O [Ciprofloxacin, reference compound]
MIC (Pseudomonas aeruginosa; agar dilution): 0.5 µg/mL (≈ 1.51 µM) | MIC (Escherichia coli; agar dilution): 0.0313 µg/mL (≈ 0.0945 µM) | MIC (Staphylococcus aureus; agar dilution): 0.5 to 1 µg/mL (≈ 1.51 to 3.02 µM) | MIC (Klebsiella pneumoniae): 0.0313 to 0.0625 µg/mL (≈ 0.0945 to 0.189 µM)

(S)-6-fluoro-1-methyl-4-oxo-7-(1-piperazinyl)-1H,4H-[1,3]thiazeto[3,2-a]quinoline-3-carboxylic acid gluconate [Compound 6]
In-vitro MIC (Pseudomonas aeruginosa; agar dilution): 0.25 µg/mL | antibacterial activities compared with compounds 7 and 8 [1]: slightly stronger | antibacterial activity (in words) [1]: relatively strong antibacterial activity | In-vitro MIC (Escherichia coli; agar dilution): 0.01 µg/mL | In-vitro MIC (Vibrio cholerae): 0.02 µg/mL | In-vitro MIC (Staphylococcus aureus; agar dilution): 0.25 µg/mL | In-vitro MIC (Klebsiella pneumoniae): 0.02 µg/mL | irritation to ear vein and surrounding tissues [3]: no irritation

(R)-6-fluoro-1-methyl-4-oxo-7-(1-piperazinyl)-1H,4H-[1,3]thiazeto[3,2-a]quinoline-3-carboxylic acid aspartate [Compound 11]
In-vitro MIC (Pseudomonas aeruginosa; agar dilution): 1 µg/mL | In-vitro MIC (Escherichia coli; agar dilution): 0.25 µg/mL | In-vitro MIC (Staphylococcus aureus; agar dilution): 2 µg/mL

(S)-6-fluoro-1-methyl-4-oxo-7-(1-piperazinyl)-1H,4H-[1,3]thiazeto[3,2-a]quinoline-3-carboxylic acid aspartate [Compound 7]
In-vitro MIC (Pseudomonas aeruginosa; agar dilution): 0.25 µg/mL | antibacterial activity (in words) [1]: relatively strong antibacterial activity | In-vitro MIC (Escherichia coli; agar dilution): 0.02 µg/mL | In-vitro MIC (Staphylococcus aureus; agar dilution): 0.25 µg/mL

CC(O)C(=O)O.C[C@H]1Sc2c(C(=O)O)c(=O)c3cc(F)c(N4CCNCC4)cc3n21 [Compound 13, (R)-6-fluoro-1-methyl-4-oxo-7-(1-piperazinyl)-1H,4H-[1,3]thiazeto[3,2-a]quinoline-3-carboxylic acid lactate]
MIC (Pseudomonas aeruginosa): 1 µg/mL | MIC (Streptococcus pneumoniae): 0.125 µg/mL | solubility [2, 4]: 116 mg/mL | MIC (Escherichia coli): 0.25 µg/mL | MIC (Staphylococcus aureus): 1 µg/mL | MIC (Enterococcus faecalis; agar dilution): 4 µg/mL
